The test system of data set [1] is Venturia inaequalis. Kind of data set: Venturia test (apple)/protective. In kind it is in vivo. The conditions noted are these: 240 h, application rate 100 g/ha, apple plants, protective spray, evaluation 10 days after inoculation, 100% = no infection, read-out: Efficacy in %. On the procedure: (§1) [table] To produce a suitable preparation of active compound, 1 part by weight of active compound is mixed with the stated amounts of solvent and emulsifier, and the concentrate is diluted with water to the desired concentration. To test for protective activity, young plants are sprayed with the preparation of active compound at the stated application rate. After the spray coating has dried on, the plants are inoculated with an aqueous conidia suspension of the apple scab pathogen Venturia inaequalis and then remain in an incubation cabin at about 20° C. and 100% relative atmospheric humidity for 1 day. The plants are then placed in a greenhouse at about 21° C. and a relative atmospheric humidity of about 90%. Evaluation is carried out 10 days after the inoculation. 0% means an efficacy which corresponds to that of the control, whereas an efficacy of 100% means that no infection is observed.

Data set [2] concerns Pyrenophora teres. Briefly: Pyrenophora teres test (barley)/protective. The format is in vivo. The conditions noted are these: application rate 500 g/ha; barley plants, protective spray. The protocol: [table] To produce a suitable preparation of active compound, 1 part by weight of active compound is mixed with the stated amounts of solvent and emulsifier, and the concentrate is diluted with water to the desired concentration. To test for protective activity, young plants are sprayed with the preparation of active compound at the stated application rate. After the spray coating has dried on, the plants are sprayed with a conidia suspension of Pyrenophora teres. The plants remain in an incubation cabin at 20° C. and 100% relative atmospheric humidity for 48 hours. The plants are then placed in a greenhouse at about 20° C. and a relative atmospheric humidity of about 80%.

Data set [3] is described as follows: logP determination by HPLC on reversed-phase column (EEC Directive 79/831). In kind it is physicochemical. The conditions noted are these: reversed-phase HPLC column (C18), pH 2.3, reversed-phase C18, 43° C., 0.1% aqueous phosphoric acid/acetonitrile gradient. On the procedure: The logP values given in the tables and preparation examples above are determined in accordance with EEC Directive 79/831 Annex V.48 by HPLC (High Performance Liquid Chromatography) on a reversed-phase column (C18). Temperature: 43° C. The determination is carried out in the acidic range at pH 2.3 using the mobile phases 0.1% aqueous phosphoric acid and acetonitrile; linear gradient from 10% acetonitrile to 90% acetonitrile. Calibration is carried out using unbranched […] (of 3 to 16 carbon atoms) with known logP values (determination of the logP values by the retention time using linear interpolation between two successive alkanones).

Data set [4] has as its system Podosphaera leucotricha. Kind of data set: Podosphaera test (apple)/protective. In kind it is in vivo. Particulars: 240 h, application rate 100 g/ha, apple plants, protective spray, evaluation 10 days after inoculation, 100% = no infection, read-out: Efficacy in %. On the procedure:
as §1, with “spore” for “conidia”, “mildew” for “scab”, “Podosphaera leucotricha.” for “Venturia inaequalis and then remain in an incubation cabin at about 20° C. and 100% relative atmospheric humidity for 1 day.”, “23°” for “21°”, “70%.” for “90%.”

Data set [5] deals with Sphaerotheca fuliginea. Kind of data set: Sphaerotheca test (cucumber)/protective. The format is in vivo. The conditions noted are these: Podosphaera fuliginea, 168 h; application rate 100 g/ha; cucumber plants, protective spray; evaluation 7 days after inoculation; 100% = no infection; read-out: Efficacy in %. On the procedure:
as §1, with “aqueous spore” for “aqueous conidia”, “of Sphaerotheca fuliginea.” for “of the apple scab pathogen Venturia inaequalis and then remain in an incubation cabin at about 20° C. and 100% relative atmospheric humidity for 1 day.”, “about 23°” for “about 21°”, “about 70%.” for “about 90%.”, “out 7” for “out 10”

In data set [6] the test system is Alternaria solani. Briefly: Alternaria test (tomato)/protective. The format is in vivo. The conditions noted are these: application rate 750 g/ha; tomato plants, protective spray, inoculation 1 day after treatment; evaluation 7 days after inoculation; 100% = no infection. On the procedure:
[table] To produce a suitable p reparation of active compound, 1 part by weight of active compound is mixed with the stated amounts of solvent and emulsifier, and the concentrate is diluted with water to the desired concentration. To test for protective activity, young tomato plants are sprayed with the preparation of active compound at the stated application rate. 1 day after the treatment, the plants are inoculated with a spore suspension of Alternaria solani and are then kept at 100% relative atmospheric humidity and 20° C. for 24 h. The plants are then kept at 96% relative atmospheric humidity and a temperature of 20° C. Evaluation is carried out 7 days after the inoculation. 0% means an efficacy which corresponds to that of the control, whereas an efficacy of 100% means that no infection is observed.

What is called chromatographic logP is lipophilicity estimated from chromatographic retention. High values mean a more lipophilic compound, low ones a more hydrophilic compound. In the case of `O=C(Nc1ccccc1-c1ccc(Cl)c(Cl)c1)c1ccccc1C(F)(F)F` [Compound 4], the pest or weed control at 100 g/ha in data set [1], in data set [4] and in data set [5] was 100% throughout. The compound further yielded an Efficacy in % in data set [2] of 100%. The chromatographic logP in data set [3] was found to be 4.13.

The compound `O=C(Nc1ccccc1-c1ccc(Br)cc1)c1ccccc1C(F)(F)F` [Compound 5] displayed an Efficacy in % in data set [6] of 94%. In data set [3], this compound yielded a chromatographic logP of 4.03.

`O=C(Nc1ccccc1-c1cccc(Cl)c1)c1ccccc1C(F)(F)F` [Compound 7]: the pest or weed control at 100 g/ha in data set [1], in data set [4] and in data set [5] was 100% each time. Besides, the values for the Efficacy in % in data set [2] and in data set [6] were 90% and 94%, respectively. Besides, the chromatographic logP in data set [3] is 3.86.

For `O=C(Nc1ccccc1-c1ccc(Br)cc1)c1ccccc1Cl` [Compound 10], the Efficacy in % in data set [6] came out at 92%. The chromatographic logP in data set [3] came to 3.89.

In data set [6], `O=C(Nc1ccccc1-c1cccc(Cl)c1)c1ccccc1Br` [Compound 18] registered an Efficacy in % of 100%. The compound also came in with a chromatographic logP in data set [3] of 3.78.

On to `O=C(Nc1ccccc1-c1ccc(F)c(F)c1)c1ccccc1C(F)(F)F` [Compound 33], for which the pest or weed control at 100 g/ha in data set [1] came to 100%; in data set [4] it was 100%; in data set [5], 82%. The same compound showed an Efficacy in % in data set [6] of 94%. The same compound gave a chromatographic logP in data set [3] of 3.55.
